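Each compound was tested at five concentrations against cells in 96-well plates for 48 hours. GI50 = concentration required for 50% inhibition of growth. Definition used: TGI = concentration required for complete inhibition of growth.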
Legend:
Experiment in all cases: inhibition of tumour cell growth, NCI panel, 48 h
SK-MEL-2 melanoma = system: SK-MEL-2 melanoma
ACHN renal = system: ACHN renal
A498 renal = system: A498 renal
SW-620 colon = system: SW-620 colon
SK-MEL-28 melanoma = system: SK-MEL-28 melanoma
HOP-92 NSCLC = system: HOP-92 NSCLC
OVCAR-4 ovarian = system: OVCAR-4 ovarian
HCT-15 colon = system: HCT-15 colon
SN12C renal = system: SN12C renal
OVCAR-8 ovarian = system: OVCAR-8 ovarian
MDA-MB-435 = system: MDA-MB-435
HCT-116 colon = system: HCT-116 colon
OVCAR-5 ovarian = system: OVCAR-5 ovarian
MDA-MB-231 breast = system: MDA-MB-231 breast
SF-539 CNS = system: SF-539 CNS
SK-MEL-5 melanoma = system: SK-MEL-5 melanoma
UACC-257 melanoma = system: UACC-257 melanoma
SF-268 CNS = system: SF-268 CNS
K-562 leukemia = system: K-562 leukemia
M14 melanoma = system: M14 melanoma
HCC-2998 colon = system: HCC-2998 colon
786-0 renal = system: 786-0 renal
HL-60(TB) leukemia = system: HL-60(TB) leukemia
NCI-H226 lung = system: NCI-H226 lung
COLO 205 colon = system: COLO 205 colon
MOLT-4 leukemia = system: MOLT-4 leukemia
BT-549 breast = system: BT-549 breast
RPMI-8226 leukemia = system: RPMI-8226 leukemia
HOP-62 NSCLC = system: HOP-62 NSCLC
CAKI-1 renal = system: CAKI-1 renal
KM12 colon = system: KM12 colon
TK-10 renal = system: TK-10 renal
IGROV1 ovarian = system: IGROV1 ovarian
U251 CNS = system: U251 CNS
MALME-3M melanoma = system: MALME-3M melanoma
NCI/ADR-RES ovarian = system: NCI/ADR-RES ovarian
UO-31 renal = system: UO-31 renal
NCI-H522 lung = system: NCI-H522 lung
A549 NSCLC = system: A549 NSCLC
HS 578T breast = system: HS 578T breast
OVCAR-3 ovarian = system: OVCAR-3 ovarian
SR leukemia = system: SR leukemia
T-47D breast = system: T-47D breast
NCI-H460 lung = system: NCI-H460 lung
MDA-MB-468 breast = system: MDA-MB-468 breast
CCRF-CEM leukemia = system: CCRF-CEM leukemia
NCI-H23 lung = system: NCI-H23 lung
DU-145 prostate = system: DU-145 prostate
RXF 393 renal = system: RXF 393 renal
MCF7 breast = system: MCF7 breast
SNB-75 CNS = system: SNB-75 CNS
UACC-62 melanoma = system: UACC-62 melanoma
LOX IMVI melanoma = system: LOX IMVI melanoma
HT29 colon = system: HT29 colon
SF-295 CNS = system: SF-295 CNS
EKVX NSCLC = system: EKVX NSCLC
SK-OV-3 ovarian = system: SK-OV-3 ovarian
PC-3 prostate = system: PC-3 prostate
SNB-19 CNS = system: SNB-19 CNS

`C=CC(=O)Nc1ccc(C(=O)/C=C/c2ccc(N(C)CCF)cc2)c(O)c1` gave a GI50 (SK-MEL-2 melanoma) of 2.53 µM, a TGI (SK-MEL-2 melanoma) of 7.88 µM and a GI50 (ACHN renal) of 1.66 µM. For the same compound, the TGI (ACHN renal) was 3.45 µM, the GI50 (A498 renal) was 3.52 µM and the TGI (A498 renal) was 17.7 µM. For the same compound, the GI50 (SW-620 colon) was 1.52 µM, the TGI (SW-620 colon) was 3.36 µM and the GI50 (SK-MEL-28 melanoma) was 1.58 µM. For the same compound, the TGI (SK-MEL-28 melanoma) was 3.14 µM, the GI50 (HOP-92 NSCLC) was 0.527 µM and the TGI (HOP-92 NSCLC) was 4 µM. It also gave a GI50 (OVCAR-4 ovarian) of 2.95 µM, a TGI (OVCAR-4 ovarian) of 14 µM and a GI50 (HCT-15 colon) of 1.41 µM. It also gave a TGI (HCT-15 colon) of 3.01 µM, a GI50 (SN12C renal) of 1.86 µM and a TGI (SN12C renal) of 5.2 µM. It also gave a GI50 (OVCAR-8 ovarian) of 1.51 µM, a TGI (OVCAR-8 ovarian) of 3.86 µM and a GI50 (MDA-MB-435) of 1.72 µM. The TGI (MDA-MB-435) was 4.6 µM, the GI50 (HCT-116 colon) was 1.5 µM and the TGI (HCT-116 colon) was 3 µM. It also gave a GI50 (OVCAR-5 ovarian) of 1.98 µM, a TGI (OVCAR-5 ovarian) of 4.3 µM and a GI50 (MDA-MB-231 breast) of 2.19 µM. The TGI (MDA-MB-231 breast) was 5.58 µM, the GI50 (SF-539 CNS) was 1.67 µM and the TGI (SF-539 CNS) was 3.5 µM. It also gave a GI50 (SK-MEL-5 melanoma) of 2.14 µM, a TGI (SK-MEL-5 melanoma) of 6.49 µM and a GI50 (UACC-257 melanoma) of 2.53 µM. For the same compound, the TGI (UACC-257 melanoma) was 10.9 µM, the GI50 (SF-268 CNS) was 2.47 µM and the TGI (SF-268 CNS) was 8.58 µM. It also gave a GI50 (K-562 leukemia) of 2.27 µM, a TGI (K-562 leukemia) of 24 µM and a GI50 (M14 melanoma) of 1.7 µM. The TGI (M14 melanoma) was 4.19 µM, the GI50 (HCC-2998 colon) was 1.78 µM and the TGI (HCC-2998 colon) was 3.64 µM. It also gave a GI50 (786-0 renal) of 1.65 µM, a TGI (786-0 renal) of 3.57 µM and a GI50 (HL-60(TB) leukemia) of 1.77 µM. It also gave a TGI (HL-60(TB) leukemia) of 5.3 µM, a GI50 (NCI-H226 lung) of 1.92 µM and a TGI (NCI-H226 lung) of 5.32 µM. It also gave a GI50 (COLO 205 colon) of 1.98 µM, a TGI (COLO 205 colon) of 4.86 µM and a GI50 (MOLT-4 leukemia) of 1.99 µM. It also gave a TGI (MOLT-4 leukemia) of 6.85 µM, a GI50 (BT-549 breast) of 1.55 µM and a TGI (BT-549 breast) of 3.78 µM. The GI50 (RPMI-8226 leukemia) was 1.6 µM, the TGI (RPMI-8226 leukemia) was 5.92 µM and the GI50 (HOP-62 NSCLC) was 3.26 µM. It also gave a TGI (HOP-62 NSCLC) of 13 µM, a GI50 (CAKI-1 renal) of 1.87 µM and a TGI (CAKI-1 renal) of 4.14 µM. For the same compound, the GI50 (KM12 colon) was 2.1 µM, the TGI (KM12 colon) was 5.25 µM and the GI50 (TK-10 renal) was 3.12 µM. For the same compound, the TGI (TK-10 renal) was 8.4 µM, the GI50 (IGROV1 ovarian) was 2 µM and the TGI (IGROV1 ovarian) was 6 µM. It also gave a GI50 (U251 CNS) of 1.88 µM, a TGI (U251 CNS) of 5.17 µM and a GI50 (MALME-3M melanoma) of 1.43 µM. The TGI (MALME-3M melanoma) was 3.46 µM, the GI50 (NCI/ADR-RES ovarian) was 1.55 µM and the TGI (NCI/ADR-RES ovarian) was 4.4 µM. For the same compound, the GI50 (UO-31 renal) was 1.28 µM, the TGI (UO-31 renal) was 3.74 µM and the GI50 (NCI-H522 lung) was 1.42 µM. It also gave a TGI (NCI-H522 lung) of 2.95 µM, a GI50 (A549 NSCLC) of 2.62 µM and a TGI (A549 NSCLC) of 12.7 µM. For the same compound, the GI50 (HS 578T breast) was 2.97 µM, the TGI (HS 578T breast) was 17.3 µM and the GI50 (OVCAR-3 ovarian) was 1.62 µM. For the same compound, the TGI (OVCAR-3 ovarian) was 4.53 µM, the GI50 (SR leukemia) was 0.586 µM and the TGI (SR leukemia) was 6.2 µM. It also gave a GI50 (T-47D breast) of 2.47 µM, a TGI (T-47D breast) of 10 µM and a GI50 (NCI-H460 lung) of 1.87 µM. For the same compound, the TGI (NCI-H460 lung) was 5.46 µM, the GI50 (MDA-MB-468 breast) was 1.63 µM and the TGI (MDA-MB-468 breast) was 4.28 µM. The GI50 (CCRF-CEM leukemia) was 2.15 µM, the TGI (CCRF-CEM leukemia) was 10.5 µM and the GI50 (NCI-H23 lung) was 1.68 µM. For the same compound, the TGI (NCI-H23 lung) was 3.99 µM, the GI50 (DU-145 prostate) was 2.52 µM and the TGI (DU-145 prostate) was 10.3 µM. The GI50 (RXF 393 renal) was 1.52 µM, the TGI (RXF 393 renal) was 3.09 µM and the GI50 (MCF7 breast) was 1.89 µM. For the same compound, the TGI (MCF7 breast) was 10.7 µM, the GI50 (SNB-75 CNS) was 2.1 µM and the TGI (SNB-75 CNS) was 9.84 µM. For the same compound, the GI50 (UACC-62 melanoma) was 1.3 µM, the TGI (UACC-62 melanoma) was 2.77 µM and the GI50 (LOX IMVI melanoma) was 1.33 µM. For the same compound, the TGI (LOX IMVI melanoma) was 2.69 µM, the GI50 (HT29 colon) was 1.57 µM and the TGI (HT29 colon) was 3.31 µM. For the same compound, the GI50 (SF-295 CNS) was 4.49 µM, the TGI (SF-295 CNS) was 18.9 µM and the GI50 (EKVX NSCLC) was 3.37 µM. The TGI (EKVX NSCLC) was 13.8 µM, the GI50 (SK-OV-3 ovarian) was 6.47 µM and the TGI (SK-OV-3 ovarian) was 21.4 µM. For the same compound, the GI50 (PC-3 prostate) was 2.22 µM, the TGI (PC-3 prostate) was 13.6 µM and the GI50 (SNB-19 CNS) was 3.67 µM. It also gave a TGI (SNB-19 CNS) of 15 µM.
